# Reference: patent US20250340557A1, “PYRIMIDINE DERIVATIVE” (ASKA PHARMACEUTICAL CO., LTD., priority 2022, published 2025)
# Target: T1, human mPGES-1 (Homo sapiens, UniProt O14684)
# T1 construct: made in house; host or cells: COS-1 cells (transient transfection; microsomal fraction used as enzyme)
# T1 sequence (O14684 1-152): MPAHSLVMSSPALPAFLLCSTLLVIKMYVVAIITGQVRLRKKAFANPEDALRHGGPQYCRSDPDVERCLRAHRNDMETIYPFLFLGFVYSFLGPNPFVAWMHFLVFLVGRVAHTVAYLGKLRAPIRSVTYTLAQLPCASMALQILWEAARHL
# Experiment: Test for mPGES-1 inhibitory activity (microsomal enzyme, PGE2 EIA)
# Format: biochemical
# Conditions: microsomes from COS-1 cells transfected with human mPGES-1 cDNA; substrate PGH2 1 μM; 4° C., 4 minutes; PGE2 measured by EIA; read-out: h mPGES1 IC50
# Outline: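 Enzyme source was microsomes from COS-1 cells transiently expressing human mPGES-1, in sodium phosphate pH 7.2 with 2.5 mM GSH, 1 mM EDTA and 2% DMSO final. After a 15 min preincubation with compound at 4 °C, 1 μM PGH2 (final) reacted for 4 min at 4 °C.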
row,IC50,SMILES
1,< 1 nM,"Cc1cccc2ccc(N3CCC(C(=O)NCc4ccc(Cl)c(-c5nc(C(F)(F)F)cc(=O)[nH]5)c4F)CC3)nc12 [Example 31, N-{4-chloro-2-fluoro-3-[6-oxo-4-(trifluoromethyl)-1,6-dihydropyrimidin-2-yl]benzyl}-1-(8-methylquinolin-2-yl)piperidine-4-carboxamide]"
2,< 1 nM,"O=C(NCc1ccc(C(F)(F)F)c(-c2nc(C(F)(F)F)cc(=O)[nH]2)c1F)C1CCN(c2ccc(F)c(Cl)c2)CC1 [Example 88, 1-(3-chloro-4-fluorophenyl)-N-{2-fluoro-3-[6-oxo-4-(trifluoromethyl)-1,6-dihydropyrimidin-2-yl]-4-(trifluoromethyl)benzyl}piperidine-4-carboxamide]"
3,< 1 nM,"Cc1cc(=O)[nH]c(-c2c(C(F)(F)F)ccc(CNC(=O)C3CCN(c4ccc(Cl)c(F)c4)CC3)c2F)n1 [Example 95, 1-(4-chloro-3-fluorophenyl)-N-[2-fluoro-3-(4-methyl-6-oxo-1,6-dihydropyrimidin-2-yl)-4-(trifluoromethyl)benzyl]piperidine-4-carboxamide]"
4,4.4 nM,"Cc1nc(-c2c(C(F)(F)F)ccc(CNC(=O)C3CCN(c4ccc(Cl)c(Cl)c4)CC3)c2F)[nH]c(=O)c1F [Example 73, 1-(3,4-dichlorophenyl)-N-[2-fluoro-3-(5-fluoro-4-methyl-6-oxo-1,6-dihydropyrimidin-2-yl)-4-(trifluoromethyl)benzyl]piperidine-4-carboxamide]"
5,< 1 nM,"CCc1nc(-c2c(C(F)(F)F)ccc(CNC(=O)[C@H]3CC[C@H](OCc4ccccc4Cl)CC3)c2F)[nH]c(=O)c1F [Example 124, trans-4-[(2-chlorobenzyl)oxy]-N-[3-(4-ethyl-5-fluoro-6-oxo-1,6-dihydropyrimidin-2-yl)-2-fluoro-4-(trifluoromethyl)benzyl]cyclohexane-1-carboxamide]"
6,< 1 nM,"O=c1cc(C(F)(F)F)nc(-c2c(C(F)(F)F)ccc(CNC(=O)[C@H]3CC[C@H](OCc4ccccc4Cl)CC3)c2F)[nH]1 [Example 99, trans-4-[(2-chlorobenzyl)oxy]-N-{2-fluoro-3-[6-oxo-4-(trifluoromethyl)-1,6-dihydropyrimidin-2-yl]-4-(trifluoromethyl)benzyl}cyclohexane-1-carboxamide]"
7,< 1 nM,"O=C(NCc1ccc(C(F)(F)F)c(-c2nccc(=O)[nH]2)c1F)C1CCN(c2ccc(C(F)(F)F)cn2)CC1 [Example 28, N-[2-fluoro-3-(6-oxo-1,6-dihydropyrimidin-2-yl)-4-(trifluoromethyl)benzyl]-1-[5-(trifluoromethyl)pyridin-2-yl]piperidine-4-carboxamide]"
8,< 1 nM,"O=c1cc(C(F)(F)F)nc(-c2c(C(F)(F)F)ccc(CNC(=O)[C@H]3C[C@H](OCc4cccc(Cl)c4)C3)c2F)[nH]1 [Example 138, trans-3-[(3-chlorobenzyl)oxy]-N-{2-fluoro-3-[6-oxo-4-(trifluoromethyl)-1,6-dihydropyrimidin-2-yl]-4-(trifluoromethyl)benzyl}cyclobutane-1-carboxamide]"
9,13 nM,"Cc1nc(-c2c(C(F)(F)F)ccc(CNC(=O)[C@H]3CC[C@H](OCc4ccc(Cl)cc4F)CC3)c2F)[nH]c(=O)c1F [Example 128, trans-4-[(4-chloro-2-fluorobenzyl)oxy]-N-[2-fluoro-3-(5-fluoro-4-methyl-6-oxo-1,6-dihydropyrimidin-2-yl)-4-(trifluoromethyl)benzyl]cyclohexane-1-carboxamide]"
10,< 1 nM,"O=C(NCc1ccc(C(F)(F)F)c(-c2nc(C(F)(F)F)cc(=O)[nH]2)c1F)C1CCN(c2ccc(Cl)cc2)CC1 [Example 64, 1-(4-chlorophenyl)-N-{2-fluoro-3-[6-oxo-4-(trifluoromethyl)-1,6-dihydropyrimidin-2-yl]-4-(trifluoromethyl)benzyl}piperidine-4-carboxamide]"
11,< 1 nM,"CCc1nc(-c2c(C(F)(F)F)ccc(CNC(=O)C3CCN(c4ccc(Cl)cn4)CC3)c2F)[nH]c(=O)c1F [Example 57, 1-(5-chloropyridin-2-yl)-N-[3-(4-ethyl-5-fluoro-6-oxo-1,6-dihydropyrimidin-2-yl)-2-fluoro-4-(trifluoromethyl)benzyl]piperidine-4-carboxamide]"
12,25 nM,"CCc1cc(=O)[nH]c(-c2c(C(F)(F)F)ccc(CNC(=O)[C@H]3CC[C@H](OCc4ccc(F)cc4F)CC3)c2F)n1 [Example 129, trans-4-[(2,4-difluorobenzyl)oxy]-N-[3-(4-ethyl-6-oxo-1,6-dihydropyrimidin-2-yl)-2-fluoro-4-(trifluoromethyl)benzyl]cyclohexane-1-carboxamide]"

# Same assay, conditions: microsomes of COS-1 cells transfected with human mPGES-1 cDNA; PGH2 1 μM; 4° C., 4 minutes; PGE2 by EIA; read-out: h mPGES1 IC50
row,IC50,SMILES
1,< 1 nM,"O=c1cc(C(F)F)nc(-c2c(C(F)(F)F)ccc(CNC(=O)[C@H]3C[C@H](OCc4ccc(F)cc4F)C3)c2F)[nH]1 [Example 167, trans-3-[(2,4-difluorobenzyl)oxy]-N-{3-[4-(difluoromethyl)-6-oxo-1,6-dihydropyrimidin-2-yl]-2-fluoro-4-(trifluoromethyl)benzyl}cyclobutane-1-carboxamide]"
2,8.8 nM,"CCc1cc(=O)[nH]c(-c2c(C(F)(F)F)ccc(CNC(=O)[C@H]3C[C@H](OCc4cccc(Cl)c4F)C3)c2F)n1 [Example 208, trans-3-[(3-chloro-2-fluorobenzyl)oxy]-N-[3-(4-ethyl-6-oxo-1,6-dihydropyrimidin-2-yl)-2-fluoro-4-(trifluoromethyl)benzyl]cyclobutane-1-carboxamide]"
3,12 nM,"Cc1cc(=O)[nH]c(-c2c(C(F)(F)F)ccc(CNC(=O)[C@H]3C[C@H](OCc4cccc(C(F)(F)F)c4)C3)c2F)n1 [Example 182, trans-N-[2-fluoro-3-(4-methyl-6-oxo-1,6-dihydropyrimidin-2-yl)-4-(trifluoromethyl)benzyl]-3-{[3-(trifluoromethyl)benzyl]oxy}cyclobutane-1-carboxamide]"
4,< 1 nM,"O=c1cc(C(F)F)nc(-c2c(C(F)(F)F)ccc(CNC(=O)[C@H]3C[C@H](OCc4ccc(F)cc4Cl)C3)c2F)[nH]1 [Example 173, trans-3-[(2-chloro-4-fluorobenzyl)oxy]-N-{3-[4-(difluoromethyl)-6-oxo-1,6-dihydropyrimidin-2-yl]-2-fluoro-4-(trifluoromethyl)benzyl}cyclobutane-1-carboxamide]"
5,< 1 nM,"CCc1nc(-c2c(C(F)(F)F)ccc(CNC(=O)[C@H]3C[C@H](OCc4cccc(F)c4)C3)c2F)[nH]c(=O)c1F [Example 239, trans-N-[3-(4-ethyl-5-fluoro-6-oxo-1,6-dihydropyrimidin-2-yl)-2-fluoro-4-(trifluoromethyl)benzyl]-3-[(3-fluorobenzyl)oxy]cyclobutane-1-carboxamide]"
6,< 1 nM,"O=c1cc(C(F)(F)F)nc(-c2c(C(F)(F)F)ccc(CNC(=O)[C@H]3C[C@H](OCc4cccc(Cl)c4F)C3)c2F)[nH]1 [Example 155, trans-3-[(3-chloro-2-fluorobenzyl)oxy]-N-{2-fluoro-3-[6-oxo-4-(trifluoromethyl)-1,6-dihydropyrimidin-2-yl]-4-(trifluoromethyl)benzyl}cyclobutane-1-carboxamide]"
7,< 1 nM,"O=C(NCc1ccc(C(F)(F)F)c(-c2nc(C(F)(F)F)cc(=O)[nH]2)c1F)c1cccc(Cl)c1Cl [Example 274, 2,3-dichloro-N-{2-fluoro-3-[6-oxo-4-(trifluoromethyl)-1,6-dihydropyrimidin-2-yl]-4-(trifluoromethyl)benzyl}benzamide]"
8,13 nM,"Cc1nc(-c2c(C(F)(F)F)ccc(CNC(=O)[C@H]3C[C@H](OCc4ccc(F)cc4F)C3)c2F)[nH]c(=O)c1F [Example 218, trans-3-[(2,4-difluorobenzyl)oxy]-N-[2-fluoro-3-(5-fluoro-4-methyl-6-oxo-1,6-dihydropyrimidin-2-yl)-4-(trifluoromethyl)benzyl]cyclobutane-1-carboxamide]"
9,10 nM,"Cc1cc(=O)[nH]c(-c2c(C(F)(F)F)ccc(CNC(=O)[C@H]3C[C@H](OCc4ccc(C(F)(F)F)cc4)C3)c2F)n1 [Example 183, trans-N-[2-fluoro-3-(4-methyl-6-oxo-1,6-dihydropyrimidin-2-yl)-4-(trifluoromethyl)benzyl]-3-{[4-(trifluoromethyl)benzyl]oxy}cyclobutane-1-carboxamide]"
10,< 1 nM,"Cc1nc(-c2c(C(F)(F)F)ccc(CNC(=O)[C@H]3C[C@H](OCc4cccc(Cl)c4F)C3)c2F)[nH]c(=O)c1F [Example 225, trans-3-[(3-chloro-2-fluorobenzyl)oxy]-N-[2-fluoro-3-(5-fluoro-4-methyl-6-oxo-1,6-dihydropyrimidin-2-yl)-4-(trifluoromethyl)benzyl]cyclobutane-1-carboxamide]"
11,6.4 nM,"Cc1cc(=O)[nH]c(-c2c(C(F)(F)F)ccc(CNC(=O)[C@H]3C[C@H](OCc4cc(F)cc(F)c4)C3)c2F)n1 [Example 187, trans-3-[(3,5-difluorobenzyl)oxy]-N-[2-fluoro-3-(4-methyl-6-oxo-1,6-dihydropyrimidin-2-yl)-4-(trifluoromethyl)benzyl]cyclobutane-1-carboxamide]"
12,10 nM,"Cc1cc(=O)[nH]c(-c2c(C(F)(F)F)ccc(CNC(=O)[C@H]3C[C@H](OCc4cccc(F)c4)C3)c2F)n1 [Example 188, trans-N-[2-fluoro-3-(4-methyl-6-oxo-1,6-dihydropyrimidin-2-yl)-4-(trifluoromethyl)benzyl]-3-[(3-fluorobenzyl)oxy]cyclobutane-1-carboxamide]"
